Experimental data taken from US10544143B2, “4-azaindole compounds” (BRISTOL-MYERS SQUIBB COMPANY, priority 2017, dated 2020).
Like-named read-outs stand apart in the source and are kept apart here. Blank lines part the entries; values can stand above or below the molecule they belong to.

Key:
human TLR7 = human TLR7 (Homo sapiens (Human), UniProt Q9NYK1); experiment: TLR7 inhibition reporter assay (HEK-Blue SEAP); assay type: cell-based
human TLR8 = human TLR8 (Homo sapiens (Human), UniProt Q9NR97); experiment: TLR8 inhibition reporter assay (HEK-Blue SEAP);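 further: SEAP driven by IFN-β minimal promoter carrying NF-κB and AP-1 sites, compounds dosed 0.05 nM to 50 µM for 22 h, inhibition scaled between agonist-plus-DMSO and reference-inhibitor wells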
Sequence of human TLR8 (Q9NR97 27-1041): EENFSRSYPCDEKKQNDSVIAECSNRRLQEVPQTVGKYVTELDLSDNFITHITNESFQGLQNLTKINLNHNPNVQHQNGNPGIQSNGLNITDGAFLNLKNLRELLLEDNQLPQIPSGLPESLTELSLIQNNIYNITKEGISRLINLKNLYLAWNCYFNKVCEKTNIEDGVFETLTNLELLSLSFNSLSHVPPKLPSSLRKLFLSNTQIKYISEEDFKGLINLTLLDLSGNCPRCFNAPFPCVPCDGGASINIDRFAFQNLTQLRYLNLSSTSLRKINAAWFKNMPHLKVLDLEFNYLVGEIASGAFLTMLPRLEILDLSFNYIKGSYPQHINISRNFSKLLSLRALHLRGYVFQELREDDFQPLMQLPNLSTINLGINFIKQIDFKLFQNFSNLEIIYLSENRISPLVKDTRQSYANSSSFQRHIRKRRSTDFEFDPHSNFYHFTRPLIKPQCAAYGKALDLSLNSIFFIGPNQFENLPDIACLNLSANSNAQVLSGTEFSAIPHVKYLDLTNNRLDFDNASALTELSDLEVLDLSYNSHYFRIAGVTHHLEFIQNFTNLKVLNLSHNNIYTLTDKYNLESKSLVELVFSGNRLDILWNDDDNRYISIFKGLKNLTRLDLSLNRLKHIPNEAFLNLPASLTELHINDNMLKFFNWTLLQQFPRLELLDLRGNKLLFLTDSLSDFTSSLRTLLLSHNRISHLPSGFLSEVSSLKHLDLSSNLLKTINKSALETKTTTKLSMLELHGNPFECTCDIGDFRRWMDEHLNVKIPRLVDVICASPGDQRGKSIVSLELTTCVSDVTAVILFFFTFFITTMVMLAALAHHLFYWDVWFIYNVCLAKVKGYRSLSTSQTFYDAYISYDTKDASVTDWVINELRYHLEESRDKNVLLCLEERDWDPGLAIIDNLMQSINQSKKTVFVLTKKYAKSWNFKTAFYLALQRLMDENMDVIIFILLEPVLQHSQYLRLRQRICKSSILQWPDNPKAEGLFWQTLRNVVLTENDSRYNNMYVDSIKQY

human TLR9 = human TLR9 (Homo sapiens (Human), UniProt Q9NR96); experiment: TLR9 inhibition reporter assay (HEK-Blue SEAP);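 further: SEAP driven by an IFN-β minimal promoter with NF-κB and AP-1 sites, read after 22 h, compounds dosed 0.05 nM–50 µM, inhibition scaled between agonist plus DMSO and reference-inhibitor wells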
Sequence of human TLR9 (Q9NR96 26-1032): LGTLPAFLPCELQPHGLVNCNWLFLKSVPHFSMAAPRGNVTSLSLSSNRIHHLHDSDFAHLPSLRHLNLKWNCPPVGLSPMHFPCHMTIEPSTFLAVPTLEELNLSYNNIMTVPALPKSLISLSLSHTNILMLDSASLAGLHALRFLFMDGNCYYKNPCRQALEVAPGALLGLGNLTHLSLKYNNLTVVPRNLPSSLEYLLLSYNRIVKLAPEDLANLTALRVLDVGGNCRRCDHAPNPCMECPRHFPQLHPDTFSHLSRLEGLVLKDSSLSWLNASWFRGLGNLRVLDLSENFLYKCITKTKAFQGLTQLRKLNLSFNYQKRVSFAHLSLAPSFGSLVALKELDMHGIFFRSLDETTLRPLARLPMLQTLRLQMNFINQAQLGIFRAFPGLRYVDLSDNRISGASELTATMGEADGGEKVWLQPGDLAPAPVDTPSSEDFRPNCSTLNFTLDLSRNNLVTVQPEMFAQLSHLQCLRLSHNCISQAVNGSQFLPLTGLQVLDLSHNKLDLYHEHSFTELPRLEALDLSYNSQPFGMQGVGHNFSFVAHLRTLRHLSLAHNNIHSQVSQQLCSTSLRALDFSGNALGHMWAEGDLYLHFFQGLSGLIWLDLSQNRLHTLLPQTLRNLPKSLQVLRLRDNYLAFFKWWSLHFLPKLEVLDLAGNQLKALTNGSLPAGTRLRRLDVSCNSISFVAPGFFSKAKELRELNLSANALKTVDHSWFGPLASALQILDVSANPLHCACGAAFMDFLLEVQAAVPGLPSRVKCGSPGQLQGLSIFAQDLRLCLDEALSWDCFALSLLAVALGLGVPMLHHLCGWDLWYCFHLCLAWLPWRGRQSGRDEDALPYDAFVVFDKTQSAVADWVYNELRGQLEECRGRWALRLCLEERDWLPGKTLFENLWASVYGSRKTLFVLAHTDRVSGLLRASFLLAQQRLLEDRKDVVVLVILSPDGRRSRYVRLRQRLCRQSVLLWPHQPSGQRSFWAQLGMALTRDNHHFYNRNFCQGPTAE

[1] = HEK-Blue cells overexpressing human TLR7, SEAP reporter, gardiquimod 7.5 μM
[2] = read-out: TLR8 IC50, HEK-Blue cells overexpressing human TLR8, SEAP reporter, R848 15.9 μM
[3] = read-out: TLR9 IC50, HEK-Blue cells overexpressing human TLR9, SEAP reporter, ODN2006 5 nM
[4] = HEK-Blue cells overexpressing human TLR7, gardiquimod 7.5 μM stimulation, SEAP reporter
[5] = TLR8 IC50, HEK-Blue cells overexpressing human TLR8, R848 15.9 μM stimulation, SEAP reporter
[6] = TLR9 IC50, HEK-Blue cells overexpressing human TLR9, ODN2006 5 nM stimulation, SEAP reporter
[7] = read-out: TLR8 IC50, HEK-Blue cells overexpressing human TLR8, R848 15.9 μM stimulation, SEAP reporter
[8] = read-out: TLR9 IC50, HEK-Blue cells overexpressing human TLR9, ODN2006 5 nM stimulation, SEAP reporter
[9] = HEK-Blue human TLR7 cells, gardiquimod 7.5 μM
[10] = TLR8 IC50, HEK-Blue human TLR8 cells, R848 15.9 μM
[11] = TLR9 IC50, HEK-Blue human TLR9 cells, ODN2006 5 nM
[12] = read-out: TLR8 IC50, HEK-Blue human TLR8 cells, R848 15.9 μM
[13] = read-out: TLR9 IC50, HEK-Blue human TLR9 cells, ODN2006 5 nM

Sequence of human TLR7 (Q9NYK1 27-1049): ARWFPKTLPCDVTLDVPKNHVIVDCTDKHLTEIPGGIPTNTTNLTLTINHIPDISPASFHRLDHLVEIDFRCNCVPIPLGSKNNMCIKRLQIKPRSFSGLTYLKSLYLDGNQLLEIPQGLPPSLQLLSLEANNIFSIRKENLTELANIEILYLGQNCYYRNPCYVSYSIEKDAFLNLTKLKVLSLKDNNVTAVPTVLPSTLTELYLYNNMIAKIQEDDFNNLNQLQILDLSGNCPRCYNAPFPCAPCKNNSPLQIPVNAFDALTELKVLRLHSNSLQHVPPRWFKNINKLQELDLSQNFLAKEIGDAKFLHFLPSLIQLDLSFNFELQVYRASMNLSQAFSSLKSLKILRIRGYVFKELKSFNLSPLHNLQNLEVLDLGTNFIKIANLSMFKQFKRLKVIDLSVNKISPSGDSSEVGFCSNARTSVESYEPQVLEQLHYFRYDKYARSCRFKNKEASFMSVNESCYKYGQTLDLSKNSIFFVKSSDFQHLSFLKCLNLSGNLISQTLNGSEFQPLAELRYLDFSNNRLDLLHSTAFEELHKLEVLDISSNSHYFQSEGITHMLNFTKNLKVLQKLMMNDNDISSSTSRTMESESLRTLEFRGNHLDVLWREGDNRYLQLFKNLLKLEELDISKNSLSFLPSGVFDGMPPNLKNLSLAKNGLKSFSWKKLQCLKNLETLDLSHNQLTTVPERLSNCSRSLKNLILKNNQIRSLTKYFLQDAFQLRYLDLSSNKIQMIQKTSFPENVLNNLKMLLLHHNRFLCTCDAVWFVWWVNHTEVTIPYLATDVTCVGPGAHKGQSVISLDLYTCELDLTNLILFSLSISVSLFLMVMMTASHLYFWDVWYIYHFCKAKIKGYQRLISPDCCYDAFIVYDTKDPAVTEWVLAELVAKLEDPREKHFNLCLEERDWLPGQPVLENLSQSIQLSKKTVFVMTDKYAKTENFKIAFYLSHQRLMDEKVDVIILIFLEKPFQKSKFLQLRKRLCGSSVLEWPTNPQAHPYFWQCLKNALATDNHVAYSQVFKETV

Molecule: 4-((3-isopropyl-2-(8-methoxy-[1,2,4]triazolo[1,5-a]pyridin-6-yl)-1H-pyrrolo[3,2-b]pyridin-5-yl)oxy)-N,N-dipropylcyclohexan-1-amine [Example 605]
- IC50 (human TLR7; [1]): 13 nM
- IC50 (human TLR8; [2]): 17 nM
- IC50 (human TLR9; [3]): 4240 nM

Molecule: COc1cc(-c2[nH]c3ccc(C4CCC(N)C4)nc3c2C(C)C)cn2ncnc12 (racemic) [Example 7, 3-(3-isopropyl-2-(8-methoxy-[1,2,4]triazolo[1,5-a]pyridin-6-yl)-1H-pyrrolo[3,2-b]pyridin-5-yl)cyclopentan-1-amine]
- IC50 (human TLR7; [4]): 4.4 nM
- IC50 (human TLR8; [5]): 52 nM
- IC50 (human TLR9; [6]): 8120 nM

Molecule: COc1cc(-c2[nH]c3ccc(C4CCC(N)C4)nc3c2C(C)C)cn2ncnc12 (racemic) [Example 9, 3-(3-isopropyl-2-(8-methoxy-[1,2,4]triazolo[1,5-a]pyridin-6-yl)-1H-pyrrolo[3,2-b]pyridin-5-yl)cyclopentan-1-amine]
- IC50 (human TLR7; [4]): 1.7 nM
- IC50 (human TLR8; [5]): 8.2 nM
- IC50 (human TLR9; [6]): 2250 nM

Molecule: Cc1c(-c2[nH]c3ccc(N4CCC(NC5COC5)C4)nc3c2C(C)C)cn2ncnc2c1C (racemic) [Example 164, 1-(2-(7,8-dimethyl-[1,2,4]triazolo[1,5-a]pyridin-6-yl)-3-isopropyl-1H-pyrrolo[3,2-b]pyridin-5-yl)-N-(oxetan-3-yl)pyrrolidin-3-amine]
- IC50 (human TLR7; [4]): 33 nM
- IC50 (human TLR8; [7]): 2 nM
- IC50 (human TLR9; [8]): 19800 nM

Molecule: COc1cc(-c2[nH]c3ccc(C4CCC(N)C4)nc3c2C(C)C)cn2ncnc12 (single isomer, unassigned) [Example 8, 3-(3-isopropyl-2-(8-methoxy-[1,2,4]triazolo[1,5-a]pyridin-6-yl)-1H-pyrrolo[3,2-b]pyridin-5-yl)cyclopentan-1-amine]
- IC50 (human TLR7; [4]): 4.7 nM
- IC50 (human TLR8; [5]): 21 nM
- IC50 (human TLR9; [6]): 8550 nM

Molecule: CNC1CCC(c2ccc3[nH]c(-c4cn5ncnc5c(C)c4C)c(C(C)C)c3n2)CC1 (single isomer, unassigned) [Example 367, 4-(2-(7,8-dimethyl-[1,2,4]triazolo[1,5-a]pyridin-6-yl)-3-isopropyl-1H-pyrrolo[3,2-b]pyridin-5-yl)-N-methylcyclohexanamine]
- IC50 (human TLR7; [4]): 1.5 nM
- IC50 (human TLR8; [7]): 3.5 nM
- IC50 (human TLR9; [8]): 838 nM

Molecule: CNC1CCC(c2ccc3[nH]c(-c4cn5ncnc5c(C)c4C)c(C(C)C)c3n2)CC1 (single isomer, unassigned) [Example 369, 4-(2-(7,8-dimethyl-[1,2,4]triazolo[1,5-a]pyridin-6-yl)-3-isopropyl-1H-pyrrolo[3,2-b]pyridin-5-yl)-N-methylcyclohexanamine]
- IC50 (human TLR7; [4]): 0.46 nM
- IC50 (human TLR8; [7]): 1.3 nM
- IC50 (human TLR9; [8]): 402 nM

Molecule: Cc1c(-c2[nH]c3ccc(C4CCC(N(C)C5COC5)CC4)nc3c2C(C)C)cn2ncnc2c1C (single isomer, unassigned) [Example 424, N-(4-(2-(7,8-dimethyl-[1,2,4]triazolo[1,5-a]pyridin-6-yl)-3-isopropyl-1H-pyrrolo[3,2-b]pyridin-5-yl)cyclohexyl)-N-methyloxetan-3-amine]
- IC50 (human TLR7; [1]): 0.89 nM
- IC50 (human TLR8; [2]): 0.74 nM
- IC50 (human TLR9; [3]): 1530 nM

Molecule: Cc1c(-c2[nH]c3ccc(C4CCC(N(C)C5COC5)CC4)nc3c2C(C)C)cn2ncnc2c1C (single isomer, unassigned) [Example 430, N-(4-(2-(7,8-dimethyl-[1,2,4]triazolo[1,5-a]pyridin-6-yl)-3-isopropyl-1H-pyrrolo[3,2-b]pyridin-5-yl)cyclohexyl)-N-methyloxetan-3-amine]
- IC50 (human TLR7; [1]): 13 nM
- IC50 (human TLR8; [2]): 14 nM
- IC50 (human TLR9; [3]): 15100 nM

Molecule: Cc1c(-c2[nH]c3ccc(N4CC(N5CCOCC5)C4)nc3c2C(C)C)cn2ncnc2c1C [Example 39, 4-(1-(2-(7,8-dimethyl-[1,2,4]triazolo[1,5-a]pyridin-6-yl)-3-isopropyl-1H-pyrrolo[3,2-b]pyridin-5-yl)azetidin-3-yl)morpholine]
- IC50 (human TLR7; [4]): 40 nM
- IC50 (human TLR8; [7]): 4.8 nM

Molecule: CC(C)c1c(-c2cn(C)c3ncccc23)[nH]c2ccc(N3CCC(N(CC#N)CC#N)CC3)nc12 [Example 52]
- IC50 (human TLR7; [4]): 7.9 nM
- IC50 (human TLR8; [7]): 20 nM

Molecule: COc1cc(-c2[nH]c3ccc(N4CCN(C5CCOC5)CC4)nc3c2C(C)C)cn2ncnc12 (stereo not drawn) [Example 103]
- IC50 (human TLR7; [4]): 7.3 nM
- IC50 (human TLR8; [7]): 2.6 nM

Molecule: CC(C)c1c(-c2cc(CO)c3ncnn3c2)[nH]c2ccc(C3CCC(NCC(=O)N(C)C)CC3)nc12 (stereo not drawn) [Example 216]
- IC50 (human TLR8; [7]): 18 nM
- IC50 (human TLR9; [8]): 416 nM

Molecule: Cc1cnc(CNC2CCC(c3ccc4[nH]c(-c5cc(CO)c6ncnn6c5)c(C(C)C)c4n3)CC2)cn1 (stereo not drawn) [Example 217]
- IC50 (human TLR8; [7]): 8.6 nM
- IC50 (human TLR9; [8]): 522 nM

Molecule: CC(C)c1c(-c2cc(CO)c3ncnn3c2)[nH]c2ccc(C3CCC(NCC(=O)N(C)C)CC3)nc12 (stereo not drawn) [Example 222]
- IC50 (human TLR8; [7]): 21 nM
- IC50 (human TLR9; [8]): 657 nM

Molecule: COc1cc(-c2[nH]c3ccc(C4CCC(NCC5(S(C)(=O)=O)CC5)CC4)nc3c2C(C)C)cn2ncnc12 (stereo not drawn) [Example 223]
- IC50 (human TLR8; [7]): 1.4 nM
- IC50 (human TLR9; [8]): 485 nM

Molecule: COc1cc(-c2[nH]c3cc(C)c(C4CCC(NCC(C)(C)O)CC4)nc3c2C(C)C)cn2ncnc12 (stereo not drawn) [Example 321]
- IC50 (human TLR8; [7]): 3 nM
- IC50 (human TLR9; [8]): 1040 nM

Molecule: COCCNC1CCC(c2nc3c(C(C)C)c(-c4cc(OC)c5ncnn5c4)[nH]c3cc2C)CC1 (stereo not drawn) [Example 335]
- IC50 (human TLR8; [7]): 4 nM
- IC50 (human TLR9; [8]): 1930 nM

Molecule: Cc1c(-c2[nH]c3ccc(C4CCC(N(C)Cc5ncccn5)CC4)nc3c2C(C)C)cn2ncnc2c1C (stereo not drawn) [Example 417]
- IC50 (human TLR8; [2]): 7.1 nM
- IC50 (human TLR9; [3]): 9500 nM

Molecule: Cc1c(-c2[nH]c3ccc(C4CCC(N(C)Cc5ncccn5)CC4)nc3c2C(C)C)cn2ncnc2c1C (stereo not drawn) [Example 418]
- IC50 (human TLR8; [2]): 3.9 nM
- IC50 (human TLR9; [3]): 2860 nM

Molecule: Cc1c(-c2[nH]c3ccc(C4CCC(N5CC6(COC6)C5)CC4)nc3c2C(C)C)cn2ncnc2c1C (stereo not drawn) [Example 435]
- IC50 (human TLR8; [2]): 5.5 nM
- IC50 (human TLR9; [3]): 2180 nM

Molecule: Cc1c(-c2[nH]c3ccc(C4CCC(N5CC(C#N)C5)CC4)nc3c2C(C)C)cn2ncnc2c1C (stereo not drawn) [Example 436]
- IC50 (human TLR8; [2]): 27 nM
- IC50 (human TLR9; [3]): 8940 nM

Molecule: Cc1c(-c2[nH]c3ccc(N4C[C@H]5C[C@@H](C4)N5C(=O)CN(C)C)nc3c2C(C)C)cn2ncnc2c1C [Example 754]
- IC50 (human TLR8; [2]): 1.7 nM
- IC50 (human TLR9; [3]): 5430 nM

Molecule: Cc1c(-c2[nH]c3ccc(N4C[C@H]5C[C@@H](C4)N5C(C)C)nc3c2C(C)C)cn2ncnc2c1C [Example 755]
- IC50 (human TLR8; [2]): 6.2 nM
- IC50 (human TLR9; [3]): 3730 nM

Next, values leading:

- IC50 (human TLR7; [9]): 1.5 nM
- IC50 (human TLR8; [10]): 2.3 nM
- IC50 (human TLR9; [11]): 8550 nM
Molecule: [2H]C([2H])([2H])N(CC(=O)N1CCN(c2ccc3[nH]c(-c4cn5ncnc5c(C)c4C)c(C(C)C)c3n2)CC1)C([2H])([2H])[2H] (single isomer, unassigned) [Example 831]

- IC50 (human TLR7; [9]): 1.1 nM
- IC50 (human TLR8; [10]): 1.3 nM
- IC50 (human TLR9; [11]): 7130 nM
Molecule: [2H]C1([2H])N(C(=O)CN(C)C)C([2H])([2H])C([2H])([2H])N(c2ccc3[nH]c(-c4cn5ncnc5c(C)c4C)c(C(C)C)c3n2)C1([2H])[2H] (single isomer, unassigned) [Example 858]

- IC50 (human TLR7; [9]): 0.97 nM
- IC50 (human TLR8; [10]): 1.5 nM
- IC50 (human TLR9; [11]): 7310 nM
Molecule: [2H]C([2H])([2H])N(CC(=O)N1C([2H])([2H])C([2H])([2H])N(c2ccc3[nH]c(-c4cn5ncnc5c(C)c4C)c(C(C)C)c3n2)C([2H])([2H])C1([2H])[2H])C([2H])([2H])[2H] (single isomer, unassigned) [Example 859]

- IC50 (human TLR7; [9]): 1.2 nM
- IC50 (human TLR8; [10]): 0.59 nM
- IC50 (human TLR9; [11]): 12200 nM
Molecule: [2H]C([2H])([2H])N(C([2H])([2H])[2H])C([2H])([2H])C(=O)N1CCN(c2ccc3[nH]c(-c4cn5ncnc5c(C)c4C)c(C(C)C)c3n2)CC1 (single isomer, unassigned) [Example 888]

- IC50 (human TLR7; [9]): 1.5 nM
- IC50 (human TLR8; [10]): 0.76 nM
- IC50 (human TLR9; [11]): 9840 nM
Molecule: [2H]C([2H])(C(=O)N1CCN(c2ccc3[nH]c(-c4cn5ncnc5c(C)c4C)c(C(C)C)c3n2)CC1)N(C)C (single isomer, unassigned) [Example 889]

- IC50 (human TLR7; [9]): 1.8 nM
- IC50 (human TLR8; [10]): 1.4 nM
- IC50 (human TLR9; [11]): 14700 nM
Molecule: [2H]C([2H])(C(=O)N1C([2H])([2H])C([2H])([2H])N(c2ccc3[nH]c(-c4cn5ncnc5c(C)c4C)c(C(C)C)c3n2)C([2H])([2H])C1([2H])[2H])N(C)C (single isomer, unassigned) [Example 890]

- IC50 (human TLR8; [2]): 11 nM
- IC50 (human TLR9; [3]): 3750 nM
Molecule: Cc1c(-c2[nH]c3ccc(C4CCC(N5CC6(COC6)C5)CC4)nc3c2C(C)C)cn2ncnc2c1C (stereo not drawn) [Example 437]

- IC50 (human TLR7; [1]): 15 nM
- IC50 (human TLR8; [2]): 57 nM
Molecule: Cc1c(-c2[nH]c3ccc(C4CCC(N5CCN(C)C(=O)C5)CC4)nc3c2C(C)C)cn2ncnc2c1C (stereo not drawn) [Example 443]

- IC50 (human TLR7; [1]): 46 nM
- IC50 (human TLR8; [2]): 99 nM
Molecule: Cc1c(-c2[nH]c3ccc(C4CCC(N(CCO)CC(=O)N(C)C)CC4)nc3c2C(C)C)cn2ncnc2c1C (stereo not drawn) [Example 468]

- IC50 (human TLR8; [2]): 23 nM
- IC50 (human TLR9; [3]): 5700 nM
Molecule: Cc1cc(-c2[nH]c3ccc(C4CCN(C5COC5)CC4)nc3c2C(C)C)cn(C)c1=O [Example 528]

- IC50 (human TLR8; [12]): 2.9 nM
- IC50 (human TLR9; [13]): 43200 nM
Molecule: Cc1c(-c2[nH]c3ccc(N4CCN(C(=O)CN5CCC(F)C5)CC4)nc3c2C(C)C)cn2ncnc2c1C (stereo not drawn) [Example 917]

- IC50 (human TLR8; [12]): 6.3 nM
- IC50 (human TLR9; [13]): 20600 nM
Molecule: Cc1c(-c2[nH]c3ccc(N4CCN(C(=O)CN5CC6(CCO6)C5)CC4)nc3c2C(C)C)cn2ncnc2c1C [Example 918]
